Measured values published in patent US10220028B2, “Thio compounds” (The United States of America, as represented by the …, priority 2011, dated 2019).
Entries after “also recorded” stand apart in the source; their conditions may differ.

Tests used:
[1] = tested on: IL-17; test: Generation of IL-17 by TCR-stimulated T cells (cytokine ELISA); format: cell-based, human; settings: FIG. 5C
Experimental: (§1) FIGS. 5A-5C. Concentration-dependence of effects of certain compounds on human T cell generation of cytokines. Each column and bar depicts the mean±S.D. of the results of cytokine ELISAs of supernates from T cells of a total of four healthy subjects, of whom two were young and two were old, after three days of incubation with anti-CD3+ anti-CD28 antibodies without (control=100%) and with a drug. The mean±S.D. of control (100%) values for IFN-γ, IL-2 and IL-17, respectively, where 30,915±11,206, 5.8±3.4 and 1149±372 pg/ml. A=IFN-γ, B=IL-2 and C=IL-17. Statistical significance of differences from the controls without an IMD was calculated by a two-sample t test and indicated by + for p<0.05,*for p<0.01 and**for p<0.001.
No compound was capable of enhancing TCR-stimulated T cell generation of IL-17. However, there was significant inhibition of generation of IL-17 by dithiolenalidomide at 0.1 μM and higher, lenalidomide at 0.3 μM and higher, dithiothalidomide at 3 μM and higher, and thalidomide only at 100 μM (FIG. 5C). None of the thalidomide-type drugs altered cytokine generation alone in the absence of TCR-directed stimulation (data not shown).

[2] = tested on: IL-2; test: Generation of IL-2 by TCR-stimulated T cells (cytokine ELISA); format: cell-based, human; settings: FIG. 5B; for concentration at which significant inhibition of IL-2 generation begins: stimulated T cells
Experimental: as §1
(§2) The capacity of several different compounds to alter the generation of three distinct immune cytokines by TCR-stimulated T cells of young and old subjects was investigated.

[3] = tested on: LPS stimulated RAW 264.7 cells; test: Cellular proliferation/health, MTS assay; format: cell-based; settings: for cell stress (changes in O.D. values of the MTS assay): FIG. 4
Experimental: The CellTiter 96 AQueous One Solution Cell Proliferation Assay (Promega, Madison, Wis.) is routinely used as an assay of cell proliferation, and was used herein, according to the manufacturer's recommendations. […] Optical densities were measured after 1 to 2 hours incubation and were expressed as a % change from their appropriate control.

[4] = tested on: IFN-γ; test: Generation of IFN-γ by TCR-stimulated T cells (cytokine ELISA); format: cell-based, human; settings: FIG. 5A; for concentration at which significant inhibition of IFN-γ generation begins: TCR-stimulated T cells
Experimental: as §1, §2

[5] = tested on: RAW 264.7 cells; test: Cellular toxicity, lactate dehydrogenase (LDH) assay; format: cell-based; settings: from 60 min after addition of LPS, vs DMSO control, FIG. 1
[6] = tested on: nitrite; test: Nitrite levels, Griess Reagent System assay; format: cell-based; settings: LPS stimulated RAW 264.7 media; FIG. 3
Experimental: Nitrite levels in the culture media were measured by use of the Griess Reagent System (Promega, Madison, Wis.), following the manufacturer's protocol. The O.D. of unknown samples was read at 520 nm A, compared to a sodium nitrite standard curve (1.5 μM to 100 μM) and nitrite measured media concentrations expressed as a % change from their appropriate control.

[7] = tested on: TNF-α protein; test: TNF-α protein assay (ELISA) in LPS stimulated RAW 264.7 culture media; format: cell-based, mouse; settings: LPS stimulated RAW 264.7 cells; vs DMSO control
Experimental: TNF-α protein levels were measured by use of an ELISA specific for mouse TNF-α protein (BioLegend, San Diego, Calif.), O.D.s measured at 450 nm λ, obtained from the unknown samples were compared to a TNF-α protein standard curve (7.8 to 500 pg/ml) and the calculated TNF-α levels are expressed as a % change from their appropriate control or as pg/ml.

Row | Structure (SMILES) | concentration at and above which IL-17 generation is significantly inhibited [1] | effect on IL-2 generation ([2]; at up to 100 μM) | cell stress (changes in O.D. values of the MTS assay) [3] | inhibition of IFN-γ generation ([4]; at 100 μM) | concentration at which significant inhibition of IL-2 generation begins [2] | cellular stress (O.D. values, LDH assay) [5] | cellular stress (MTS assay) ([3]; concentrations that far exceed 20 μM, LPS stimulated RAW 264.7 cells, FIG. 3) | toxicity compared to dithiothalidomide ([3]; particularly at drug concentrations or 10 μm or greater) | concentration at which significant inhibition of IFN-γ generation begins [4] | levels of nitrite in cell culture media [6] | levels of TNF-α protein in cell culture media [7] | mean maximal enhancement of IL-2 generation ([2]; at 1 μM, mixed group of young and old subjects) | peak enhancement of IFN-γ generation ([4]; at 3 μM) | cellular health (MTS assay), relative to 100% control ([3]; 20 μM, LPS stimulated RAW 264.7 cells, FIG. 3) | cellular stress (MTS assay) ([3]; 20 μM, LPS stimulated RAW 264.7 cells, vs DMSO control, FIG. 3)
1 | O=C1CCC(N2C(=O)c3ccccc3C2=O)C(=O)N1 (stereo not drawn) [thalidomide, N-α-phthalimidoglutarimide] | 100 µM | no detectable effect | Neither thalidomide and lenalidomide treatment induced any cell stress | only modest inhibition |  |  |  |  |  |  |  |  |  |  | 
2 | Nc1cccc2c1CN(C1CCC(=S)NC1=O)C2=S (stereo not drawn) [dithiolenalidomide, 1,6′-Dithiolenalidomide] | ≥ 0.1 µM |  |  |  | ≥ 3 µM | no evidence of cellular stress | failed to induce any cellular stress | less toxic compared to dithiothalidomide | ≥ 1 µM | reduced the levels of nitrite | retained TNF-α inhibitory effect; also recorded: reduced the levels of TNF-α protein |  |  |  | 
3 | Nc1cccc2c1CN(C1CCC(=O)NC1=O)C2=O (stereo not drawn) [lenalidomide] | ≥ 0.3 µM |  | Neither thalidomide and lenalidomide treatment induced any cell stress |  |  |  |  |  |  |  |  | 9.5 fold | nearly three-fold |  | 
4 | O=C1NC(=S)CCC1N1C(=O)c2ccccc2C1=S (stereo not drawn) [dithiothalidomide, 3,6′-Dithiothalidomide] | ≥ 3 µM |  |  |  | ≥ 30 µM | evidence of cellular stress |  |  | ≥ 3 µM | reduced the levels of nitrite | reduced the levels of TNF-α protein |  |  | reduction from the 100% control values | evidence of cellular stress
